Test results reported in PubChem BioAssay AID248 (DTP/NCI, 2004).
“And” between values parts separate entries of the source, which are not always exact repeats. Identical values can stand only once. Inconclusive results and toxic doses are left out.

System: L1210 leukemia ip in BDF1 mice, survival T/C
Experiment: NCI In Vivo Anticancer Drug Screen. Data for tumor model L1210 Leukemia (intraperitoneal) in B6D2F1 (BDF1) mice
Conditions: endpoint: mean survival time, higher = longer survival
How it was run: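 Value reflects the ratio of survival in compound-treated mice to survival in vehicle-treated controls, with both groups carrying the same transplanted tumor.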

[1] = dose: 100.0 mg/kg/injection, schedule: Q01DX009 (ip), vehicle: saline
[2] = dose: 100.0 mg/kg/injection, schedule: Q04DX003 (ip), vehicle: saline
[3] = dose: 200.0 mg/kg/injection, schedule: Q01DX009 (ip), vehicle: saline
[4] = dose: 200.0 mg/kg/injection, schedule: Q04DX003 (ip), vehicle: saline
[5] = dose: 400.0 mg/kg/injection, schedule: Q01DX009 (ip), vehicle: saline
[6] = dose: 400.0 mg/kg/injection, schedule: Q04DX003 (ip), vehicle: saline
[7] = dose: 100.0 mg/kg/injection, schedule: Q04DX003 (ip), vehicle: Klucel (hydroxypropylcellulose) (HPC)
[8] = dose: 200.0 mg/kg/injection, schedule: Q04DX003 (ip), vehicle: Klucel (hydroxypropylcellulose) (HPC)
[9] = dose: 400.0 mg/kg/injection, schedule: Q04DX003 (ip), vehicle: Klucel (hydroxypropylcellulose) (HPC)
[10] = dose: 100.0 mg/kg/injection, schedule: Q01DX001 (ip), vehicle: saline
[11] = dose: 200.0 mg/kg/injection, schedule: Q01DX001 (ip), vehicle: saline
[12] = dose: 400.0 mg/kg/injection, schedule: Q01DX001 (ip), vehicle: saline
[13] = dose: 100.0 mg/kg/injection, schedule: Q01DX001 (ip), vehicle: saline with Tween-80
[14] = dose: 200.0 mg/kg/injection, schedule: Q01DX001 (ip), vehicle: saline with Tween-80
[15] = dose: 400.0 mg/kg/injection, schedule: Q01DX001 (ip), vehicle: saline with Tween-80
[16] = dose: 100.0 mg/kg/injection, schedule: Q01DX009 (ip), vehicle: water
[17] = dose: 100.0 mg/kg/injection, schedule: Q04DX003 (ip), vehicle: water
[18] = dose: 200.0 mg/kg/injection, schedule: Q04DX003 (ip), vehicle: water
[19] = dose: 100.0 mg/kg/injection, schedule: Q04DX002 (ip), vehicle: Klucel (hydroxypropylcellulose) (HPC)
[20] = dose: 200.0 mg/kg/injection, schedule: Q04DX002 (ip), vehicle: Klucel (hydroxypropylcellulose) (HPC)
[21] = dose: 400.0 mg/kg/injection, schedule: Q04DX002 (ip), vehicle: Klucel (hydroxypropylcellulose) (HPC)
[22] = dose: 25.0 mg/kg/injection, schedule: Q04DX003 (ip), vehicle: Klucel (hydroxypropylcellulose) (HPC)
[23] = dose: 50.0 mg/kg/injection, schedule: Q04DX003 (ip), vehicle: Klucel (hydroxypropylcellulose) (HPC)
[24] = dose: 100.0 mg/kg/injection, schedule: Q01DX009 (ip), vehicle: Klucel (hydroxypropylcellulose) (HPC)
[25] = dose: 200.0 mg/kg/injection, schedule: Q01DX009 (ip), vehicle: Klucel (hydroxypropylcellulose) (HPC)
[26] = dose: 400.0 mg/kg/injection, schedule: Q01DX009 (ip), vehicle: Klucel (hydroxypropylcellulose) (HPC)
[27] = dose: 100.0 mg/kg/injection, schedule: Q01DX001 (ip), vehicle: carboxymethylcellulose (CMC)
[28] = dose: 200.0 mg/kg/injection, schedule: Q01DX001 (ip), vehicle: carboxymethylcellulose (CMC)

CC(C)(SCc1ccccc1)C(N)C(=O)O (configuration not stated)
T/C (dose: 75.0 mg/kg/injection, schedule: Q01DX001 (ip), vehicle: saline): 104 % of control
T/C [1]: 91 % of control
T/C [2]: 105 % of control
T/C (dose: 150.0 mg/kg/injection, schedule: Q01DX001 (ip), vehicle: saline): 98 % of control
T/C [3]: 98 % of control
T/C [4]: 102 % of control
T/C [5]: 91 % of control
T/C [6]: 97 % of control

CC(=O)N(c1ccccc1OS(C)(=O)=O)S(C)(=O)=O
T/C [7]: 109 % of control
T/C [8]: 100 % of control
T/C [9]: 104 % of control

CC(C)(C)OC(=O)NCC(=O)NNC(=O)OC(C)(C)C
T/C [1]: 92 % of control
T/C (dose: 100.0 mg/kg/injection, schedule: Q04DX003 (ip), vehicle: saline sonified): 101 % of control
T/C [3]: 89 % of control
T/C (dose: 200.0 mg/kg/injection, schedule: Q04DX003 (ip), vehicle: saline sonified): 97 % of control
T/C [5]: 92 % of control
T/C (dose: 400.0 mg/kg/injection, schedule: Q04DX003 (ip), vehicle: saline sonified): 95 % of control

CC1(C)CCCC2(C)C3=C(CC4(C(C)(C)O)OC4C3=O)C(=O)CC12 (configuration not stated)
T/C [10]: 102 % of control
T/C [11]: 105 % of control
T/C [12]: 109 % of control

CC12CCc3oc(-c4ccccc4)cc3C1=CCCC2=O (configuration not stated)
T/C [13]: 102 % of control
T/C [14]: 94 % of control
T/C [15]: 96 % of control

C/C(=C\C(=O)O)CC(=O)O
T/C (dose: 25.0 mg/kg/injection, schedule: Q01DX009 (ip), vehicle: water): 88 % of control
T/C (dose: 25.0 mg/kg/injection, schedule: Q04DX003 (ip), vehicle: water): 95 % of control and 105 % of control
T/C (dose: 50.0 mg/kg/injection, schedule: Q04DX003 (ip), vehicle: water): 104 % of control and 89 % of control
T/C [16]: 88 % of control
T/C [17]: 101 % of control and 102 % of control
T/C [18]: 93 % of control

N=c1ccccn1C(=O)C1=Cc2ccccc2OC1
T/C [13]: 103 % of control
T/C [14]: 100 % of control
T/C [15]: 96 % of control

COc1cccc(NC(=O)c2cccc([N+](=O)[O-])c2)c1
T/C [19]: 94 % of control
T/C [20]: 98 % of control
T/C [21]: 91 % of control

COC(=O)Cc1cn[nH]c1C(=O)OC
T/C [1]: 97 % of control
T/C [7]: 93 % of control
T/C [3]: 94 % of control
T/C [8]: 97 % of control
T/C [5]: 95 % of control
T/C [9]: 97 % of control

CCC1(O)CC2c3ccccc3CCN2CC1CC(C)C (configuration not stated)
T/C (dose: 12.5 mg/kg/injection, schedule: Q01DX009 (ip), vehicle: Klucel (hydroxypropylcellulose) (HPC)): 101 % of control
T/C (dose: 25.0 mg/kg/injection, schedule: Q01DX009 (ip), vehicle: Klucel (hydroxypropylcellulose) (HPC)): 116 % of control
T/C [22]: 110 % of control
T/C (dose: 50.0 mg/kg/injection, schedule: Q01DX009 (ip), vehicle: Klucel (hydroxypropylcellulose) (HPC)): 108 % of control
T/C [23]: 98 % of control
T/C [24]: 121 % of control
T/C [7]: 113 % of control
T/C [8]: 107 % of control

CN(C)c1ccc(C(=C(C#N)C#N)c2ccc(N(C)C)cc2)cc1
T/C [24]: 98 % of control
T/C [7]: 95 % of control
T/C [25]: 98 % of control
T/C [8]: 101 % of control
T/C [26]: 102 % of control
T/C [9]: 101 % of control

Ic1nc(I)c(I)[nH]1
T/C (dose: 100.0 mg/kg/injection, schedule: Q01DX009 (ip), vehicle: saline with Tween-80): 102 % of control
T/C (dose: 200.0 mg/kg/injection, schedule: Q01DX009 (ip), vehicle: saline with Tween-80): 105 % of control
T/C (dose: 400.0 mg/kg/injection, schedule: Q01DX009 (ip), vehicle: saline with Tween-80): 102 % of control

NC(CC(O)C(=O)O)C(=O)O (configuration not stated)
T/C (dose: 12.5 mg/kg/injection, schedule: Q04DX002 (ip), vehicle: saline): 95 % of control
T/C (dose: 25.0 mg/kg/injection, schedule: Q04DX002 (ip), vehicle: saline): 106 % of control and 96 % of control
T/C (dose: 50.0 mg/kg/injection, schedule: Q04DX002 (ip), vehicle: saline): 106 % of control and 96 % of control
T/C [13]: 93 % of control
T/C (dose: 100.0 mg/kg/injection, schedule: Q04DX002 (ip), vehicle: saline): 101 % of control
T/C [14]: 97 % of control
T/C [15]: 87 % of control

O=[N+]([O-])c1ccc(S(=O)(=O)CC(Cl)c2ccccc2)cc1 (configuration not stated)
T/C [10]: 102 % of control
T/C (dose: 100.0 mg/kg/injection, schedule: Q01DX009 (ip), vehicle: acetone): 86 % of control
T/C [11]: 107 % of control
T/C (dose: 200.0 mg/kg/injection, schedule: Q01DX009 (ip), vehicle: acetone): 94 % of control
T/C [12]: 110 % of control
T/C (dose: 400.0 mg/kg/injection, schedule: Q01DX009 (ip), vehicle: acetone): 96 % of control

CCN(CC)C(=S)Nc1ccc([N+](=O)[O-])cc1
T/C [24]: 104 % of control
T/C [25]: 86 % of control
T/C [26]: 100 % of control

Cc1cc(C)c(N)c(C)n1
T/C (dose: 12.5 mg/kg/injection, schedule: Q04DX003 (ip), vehicle: Klucel (hydroxypropylcellulose) (HPC)): 95 % of control
T/C [22]: 97 % of control
T/C [23]: 93 % of control

O=[N+]([O-])c1c[nH]c2ncnc(Cl)c12
T/C (dose: 50.0 mg/kg/injection, schedule: Q01DX001 (ip), vehicle: carboxymethylcellulose (CMC)): 98 % of control
T/C [27]: 89 % of control
T/C [28]: 106 % of control

Cc1cc(=O)[nH]c2c(C)cc(Cc3cc(C)c4[nH]c(=O)cc(C)c4c3)cc12
T/C [27]: 96 % of control
T/C [28]: 101 % of control
T/C (dose: 400.0 mg/kg/injection, schedule: Q01DX001 (ip), vehicle: carboxymethylcellulose (CMC)): 103 % of control

CCOC(=O)c1ccc(N=NN(C)C(C)CC)cc1 (configuration not stated)
T/C (dose: 100.0 mg/kg/injection, schedule: Q01DX001 (ip), vehicle: Klucel (hydroxypropylcellulose) (HPC)): 113 % of control
T/C [7]: 102 % of control
T/C (dose: 200.0 mg/kg/injection, schedule: Q01DX001 (ip), vehicle: Klucel (hydroxypropylcellulose) (HPC)): 101 % of control
T/C [8]: 118 % of control
T/C (dose: 400.0 mg/kg/injection, schedule: Q01DX001 (ip), vehicle: Klucel (hydroxypropylcellulose) (HPC)): 124 % of control
T/C [26]: 166 % of control
T/C [9]: 122 % of control

O=C(C=C(C(F)(F)F)C(F)(F)F)c1cc(Cl)ccc1Cl
T/C (dose: 12.5 mg/kg/injection, schedule: Q01DX009 (ip), vehicle: saline with Tween-80): 110 % of control
T/C (dose: 12.5 mg/kg/injection, schedule: Q04DX003 (ip), vehicle: saline with Tween-80): 97 % of control
T/C (dose: 25.0 mg/kg/injection, schedule: Q01DX009 (ip), vehicle: saline with Tween-80): 102 % of control
T/C (dose: 25.0 mg/kg/injection, schedule: Q04DX003 (ip), vehicle: saline with Tween-80): 100 % of control
T/C (dose: 50.0 mg/kg/injection, schedule: Q04DX003 (ip), vehicle: saline with Tween-80): 105 % of control

CCSc1nc2c([nH]1)c(=S)n(C)c(=O)n2C
T/C [10]: 96 % of control
T/C [1]: 100 % of control
T/C [2]: 109 % of control
T/C [11]: 112 % of control
T/C [3]: 89 % of control
T/C [4]: 98 % of control
T/C [12]: 95 % of control
T/C [5]: 103 % of control
T/C [6]: 98 % of control

O=C(COc1ccc(F)cc1Cl)OCCOCCO
T/C [19]: 106 % of control
T/C [20]: 95 % of control
T/C [21]: 106 % of control

Cc1nc(N)cc(=O)[nH]1
T/C [16]: 112 % of control
T/C [17]: 97 % of control
T/C (dose: 200.0 mg/kg/injection, schedule: Q01DX009 (ip), vehicle: water): 104 % of control
T/C [18]: 97 % of control
T/C (dose: 400.0 mg/kg/injection, schedule: Q04DX003 (ip), vehicle: water): 97 % of control
